Square brackets hold non-standard residues; d marks the D form. Ends that are not written are not given here. Peptide text beside a SMILES is read from it. pY = N[C@@H](Cc1ccc(OP(=O)(O)O)cc1)C(=O)O
What was measured:
α-thrombin [1] = target: T1, α-thrombin (Homo sapiens, UniProt P00734); assay: Competitive binding assay: α-thrombin binding to fluoresceinated γ′ 408-427 peptide; parameters: incubating 2 nM fluoresceinated peptide with 2 μM α-thrombin; thrombin: gift of Dr. John Fenton, II and Dr. Walter Kisiel; tracer peptide: Research Genetics; settings: 2 nM fluoresceinated peptide with 2 μM α-thrombin
Excerpt: Proteins, Peptides, and DNA Aptamers. Human α-thrombin was generously provided by Dr. John Fenton, II (New York State Department of Health, Albany, N.Y.) and Dr. Walter Kisiel (University of New Mexico, Albuquerque, N. Mex.). Human γ-thrombin was obtained from Haematologic Technologies, Inc. (Essex Junction, Vt.). Tyrosine-phosphorylated derivatives of peptides corresponding to the γ′ chain carboxyl terminus, […] (SEQ ID NO: 11), were obtained from Research Genetics, Inc. (Huntsville, Ala.) and GeneMed Synthesis, Inc. (South San Francisco, Calif.). The peptides were purified to >95% purity by HPLC, and their molecular weights were verified by mass spectrometry. Tyrosine-sulfated, amino-terminal acetylated hirudin peptide 53-65 was obtained from Bachem, Inc. (Torrance, Calif.) and tyrosine-sulfated hirudin peptide 54-65 was obtained from Sigma (St. Louis, Mo.). Single-stranded DNA aptamers 5′-GGT-TGG-TGT-GGT-TGG-3′ (SEQ ID NO: 5), referred to as HD1, and 5′-AGT-CCG-TGG-TAG-GGC-AGG-TTG-GGG-TGA-CT-3′ (SEQ ID NO: 6), referred to as HD22, were generously provided by Dr. Jeffrey I. Weitz (McMaster University, Hamilton, ONT, Canada). A monoclonal antibody directed against thrombin exosite II (34) was a gift from Dr. Douglas M. Tollefsen (Washington University, St. Louis, Mo.). Production of Recombinant Fibrinogens Recombinant fibrinogen molecules were expressed with tyrosine to phenylalanine mutations in the γ′ chain at positions γ′ 418 and/or γ′ 422. Plasmid pAG-γ′ (10) was used as the template for site-directed mutagenesis (35) using the primer GAA-ACA-GAA-TTT-GAC-TCA-CTT (SEQ ID NO: 7) for Y418F, GAC-TCA-CTT-TTC-CCT-GAG-GAT (SEQ ID NO: 8) for Y422F, and GAA-ACA-GAA-TTT-GAC-TCA-CTT-TTC-CCT-GAG-GAT (SEQ ID NO: 9) for Y418F/Y422F. The mutated pAG-γ′ plasmids were co-transfected with pBD-1 into a baby hamster kidney cell line as described previously (10). Recombinant fibrinogens were labeled with 1 mCi/ml ^35SO4 in serum-free medium and immunoprecipitated from the medium using a rabbit polyclonal anti-fibrinogen antiserum (Accurate Chemical and Scientific Corp., Westbury, N.Y.) as described previously (10). The amount of fibrinogen secreted during the labeling was determined using an ELISA described previously (10). Identical amounts of radiolabeled fibrinogens (300 ng) were resolved by SDS-polyacrylamide gel electrophoresis on 10% gels under reducing conditions (36) and exposed to X-ray film. Thrombin/γ′ Peptide Binding Assay. To quantitate the binding of thrombin to the γ′ chain carboxyl terminus, 50 nM […]-Y (PO3)-DSL-Y (PO3)—PEDDL (SEQ ID NO: 10) peptide (Research Genetics), corresponding to the carboxyl terminal twenty amino acids of the γ′ chain, was labeled for 1 hour at 37° C. with a 5-fold molar excess of fluorescein succinimidyl ester (PanVera) in 100 mM potassium phosphate, pH 7.0 as per the manufacturer's protocol. Unreacted fluorescein succinimidyl ester was reacted with 100 mM Tris, pH 8.0 for 30 minutes and removed by desalting the fluoresceinated peptide on Sephadex G-15 in 137 mM NaCl/2.7 mM KCl/10 mM HEPES, pH 7.4. 2 nM fluoresceinated peptide was incubated with the indicated concentrations of thrombin for 30 seconds at 22° C. in 50 μg/ml BSA/137 mM NaCl/2.7 mM KCl/10 mM HEPES, pH 7.4. Fluorescence polarization was measured following excitation at 488 nm and emission at 535 nm. The data are fit to the equation: y=x/(b+x) where y is fit to x, using “x” as the concentration of thrombin and “b” as the Kd.
Competitive binding assays were performed by incubating 2 nM fluoresceinated peptide with 2 μM α-thrombin in the presence of the indicated concentrations of competing ligand. Fluorescence polarization was measured following excitation at 488 nm and emission at 535 nm.

thrombin = thrombin (Homo sapiens, UniProt P00734); settings: prior studies by others (43); read-out: Ki, direct inhibitory activity towards thrombin; cited from earlier work
[2] = tested on: normal human reference plasma; assay: Activated partial thromboplastin time (aPTT) assay in human plasma; format: biochemical; settings: human plasma; 0-1 mM peptide
Experimental: Activated Partial Thromboplastin Time (aPTT) Assay. This anti-coagulation assay was chosen for testing the γ′ peptides due to its sensitivity to heparin-like compounds, its ease of use, and the ability to automate the procedure. An MLA 1600 instrument (Organon Teknika) was used to quantitate the effect of the γ′ peptides on the aPTT, using the manufacturer's protocol. Briefly, 0-1 mM γ′ peptides or 0-10 units/ml unfractionated heparin was added to 50 μl of normal reference plasma (Ortho) and manually loaded into the MLA 1600. The MLA 1600 added SynthASil aPTT reagent (Ortho) to initiate clotting, and clot formation was monitored spectrophotometrically for 106 seconds. […] Prothrombin Time/International Normalized Ratio Assay. This clotting assay is less sensitive to heparin than the aPTT, and may be used to determine if a γ′ peptide is capable of prolonging the prothrombin time (PT) to the same extent as the 3 aPTT. One-stage PT assays may be performed using an MLA 1600 instrument according to the manufacturer's protocol. Briefly, 0-1 mM γ′ peptide or scrambled peptide or 0-10 units/ml unfractionated heparin may be added to 50 μl of normal reference plasma (Ortho) and manually loaded into the MLA 1600. The MLA 1600 may be used to add recombinant thromboplastin (Recombiplastin, Ortho) to initiate clotting, and clot formation monitored spectrophotometrically for 106 seconds. If a clot is not generated within 106 seconds, the MLA will automatically extend the observation time to 212 seconds.
An aPTT assay was performed using human plasma to determine the effect of γ′ peptide on the clotting time in this system. […] The MLA 1600 added SynthASil aPTT reagent (Ortho) to initiate clotting and clot formation was monitored spectrophotometrically for 106 seconds. […]
An aPTT assay was performed using human plasma to determine the effect of γ′ deletion peptides on the clotting time in this system. […] The MLA 1600 added SynthASil aPTT reagent (Ortho) to initiate clotting and clot formation was monitored spectrophotometrically for 106 seconds. […]

α-thrombin [3] = target: T1, α-thrombin; assay: Thrombin/γ′ peptide binding assay (fluorescence polarization); parameters: Human α-thrombin; gift: Dr. John Fenton, II (New York State Department of Health) and Dr. Walter Kisiel (University of New Mexico); settings: 2 nM fluoresceinated peptide, 22° C., pH 7.4, read-out: Kd, binding of α-thrombin to fluoresceinated γ′ 408-427 peptide
Excerpt: Proteins, Peptides, and DNA Aptamers. Human α-thrombin was generously provided by Dr. John Fenton, II (New York State Department of Health, Albany, N.Y.) and Dr. Walter Kisiel (University of New Mexico, Albuquerque, N. Mex.). Human γ-thrombin was obtained from Haematologic Technologies, Inc. (Essex Junction, Vt.). Tyrosine-phosphorylated derivatives of peptides corresponding to the γ′ chain carboxyl terminus, […] (SEQ ID NO: 11), were obtained from Research Genetics, Inc. (Huntsville, Ala.) and GeneMed Synthesis, Inc. (South San Francisco, Calif.). The peptides were purified to >95% purity by HPLC, and their molecular weights were verified by mass spectrometry. […] The amount of fibrinogen secreted during the labeling was determined using an ELISA described previously (10). […] To quantitate the binding of thrombin to the γ′ chain carboxyl terminus, 50 nM […]-Y (PO3)-DSL-Y (PO3)—PEDDL (SEQ ID NO: 10) peptide (Research Genetics), corresponding to the carboxyl terminal twenty amino acids of the γ′ chain, was labeled for 1 hour at 37° C. with a 5-fold molar excess of fluorescein succinimidyl ester (PanVera) in 100 mM potassium phosphate, pH 7.0 as per the manufacturer's protocol. […] Fluorescence polarization was measured following excitation at 488 nm and emission at 535 nm. […]

α-thrombin [4] = target: T1, α-thrombin; assay: Thrombin inhibition assay (ATIII, with or without heparin, Chromozym TH); format: biochemical; parameters: incubating 2 nM fluoresceinated peptide with 2 μM α-thrombin; thrombin: gift of Dr. John Fenton, II and Dr. Walter Kisiel; tracer peptide: Research Genetics
Experimental: Thrombin Inhibition Assay. […] In some experiments, 0.33 μM heparin (Sigma) was included in the reaction. The inhibition reaction was terminated by the addition of 0.3 ml of a vast molar excess of substrate, 1.25 mg/ml Chromozym TH (Boehringer Mannheim, Indianapolis, Ind.), and the remaining thrombin activity was subsequently measured by monitoring the absorbance at 405 nm for 15 minutes at 22° C. Results Two Tyrosine Residues in the γ′ Chain Are Sulfated. […] Since the γ′ chain differs from the γA chain only in its carboxyl terminal 20 amino acids, it has been assumed that the sulfated residues are within this 20 amino acid sequence, although the addition of the γ′ sequence could also induce conformational changes in the γ chain that expose new sites for sulfation upstream of the carboxyl terminus. […] The carboxyl terminus of the γ′ chain contains two potential sites for tyrosine sulfation at positions γ′ Y418 and γ′ Y422. […] However, no direct evidence of sulfation at γ′ Y418 or γ′ Y422 was presented. Furthermore, in both bovine and rat fibrinogen, the γ′ chain terminates at the equivalent of γ′ 420, prior to γ′ Y422 (37, 38). The rat γ′ chain does, however, contain sulfotyrosine (39). […]

Compound	Inhibition of α-thrombin binding to fluoresceinated γ′ 408-427 peptide (in words) (α-thrombin [1])	Anticoagulant effect in aPTT (in words) [2]	other results
AETEY(*)DSLY(*)PEDDL (AETEYDSLYPEDDL; not fully specified (residues 5, 9); printed as AETEY(*)DSLY(*)PEDDL) [peptide 414-427]	lower affinity	reduced level of anticoagulant activity	
5′-AGT-CCG-TGG-TAG-GGC-AGG-TTG-GGG-TGA-CT-3′ [HD22, reference compound]	more potent competitor than HD1		
VRPEHPAETEY(*)DSLY(*)PE (VRPEHPAETEYDSLYPE; not fully specified (residues 11, 15); printed as VRPEHPAETEY(*)DSLY(*)PE) [peptide 408-424]	lower affinity		
CC(C)C[C@H](NC(=O)[C@H](CC(=O)O)NC(=O)[C@H](CC(=O)O)NC(=O)[C@H](CCC(=O)O)NC(=O)[C@@H]1CCCN1C(=O)[C@H](Cc1ccc(OP(=O)(O)O)cc1)NC(=O)[C@H](CC(C)C)NC(=O)[C@H](CO)NC(=O)[C@H](CC(=O)O)NC(=O)[C@H](Cc1ccc(OP(=O)(O)O)cc1)NC(=O)[C@H](CCC(=O)O)NC(=O)[C@@H](NC(=O)[C@H](CCC(=O)O)NC(=O)[C@H](C)NC(=O)[C@@H]1CCCN1C(=O)[C@H](Cc1c[nH]cn1)NC(=O)[C@H](CCC(=O)O)NC(=O)[C@@H]1CCCN1C(=O)[C@H](CCCNC(=N)N)NC(=O)[C@@H](N)C(C)C)[C@@H](C)O)C(=O)O [γ′ 408-427] (H-VRPEHPAETE[pY]DSL[pY]PEDDL-OH; N-terminus and C-terminus assumed)			Kd (α-thrombin [3]): 430 ± 80 nM; Ki (α-thrombin [1]; read-out: Ki, competition for α-thrombin binding to fluoresceinated γ′ 408-427 peptide): 520 ± 140 nM; Effect on heparin's acceleration of thrombin inhibition by ATIII (α-thrombin [4]; 0.33 μM heparin, 13.7 nM ATIII, 0-1.0 mM γ′ peptide, 15 minutes): antagonized the accelerative activity of heparin in a dose-dependent manner; Direct inhibition of thrombin (α-thrombin [4]; concentrations up to 1 mM, data not shown): not directly inhibitory

Continued, in another order:

Inhibition of α-thrombin binding to fluoresceinated γ′ 408-427 peptide (in words) (α-thrombin [1])	Compound	Anticoagulant effect in aPTT (in words) [2]	other results
completely inactive	VRPEHPAETEYDSLYPEDDL [nonphosphorylated peptide]		Ki (thrombin): 130000 nM
completely inactive	EY(*)DSLY(*)PEDDL (EYDSLYPEDDL; not fully specified (residues 2, 6); printed as EY(*)DSLY(*)PEDDL) [peptide 417-427]	further reduction in activity	

— patent US7615527B2, “Peptides which modulate blood coagulation and methods of use thereof” (Oregon Health & Science University, priority 2001, dated 2009)
